Assay results published in US7906486B2, “Method of treating or preventing tissue deterioration, injury or damage due to disease of mucosa” (SciClone Pharmaceuticals, Inc., priority 2007, dated 2011).

Tested on: oral mucositis induced by fractionated radiation (eight doses of 7.5 Gy, left buccal cheek pouch)
Assay: Oral mucositis induced by fractionated radiation in hamsters, mucositis scoring (Example 3, SCI-03)
Type: in vivo, Syrian Golden Hamsters
Design: key: 0: Pouch completely healthy. No erythema or vasodilation.; 1: Light to severe erythema and vasodilation. No erosion of mucosa.; 2: Severe erythema and vasodilation. Erosion of superficial aspects of mucosa leaving denuded areas, but no frank ulceration. Decreased stippling of mucosa.; 3: Formation of off-white ulcers in one or more places. Ulcers may have a yellow/gray due to pseudomembrane. Cumulative size of ulcers should equal about ¼ of the pouch. Severe erythema and vasodilation.; 4: Cumulative seize of ulcers should equal about ½ of the pouch. Loss of pliability. Severe erythema and vasodilation.; 5: Virtually all of pouch is ulcerated. Loss of pliability (pouch can only partially be extracted from mouth)
Source text: The fractionated radiation model in hamsters, developed by the Principal Investigator, has proven to be an accurate, efficient and cost-effective technique to provide a preliminary evaluation of anti-mucositis compounds. In this model, hamsters receive 8 doses of 7.5 Gy to the left cheek pouch on days 0, 1, 2, 3, […], rather than the single dose of 40 Gy on day 0 that is used in acute radiation studies. The rationale for using this scheduling for the radiation is that it more closely resembles the clinical courses of radiotherapy given to cancer patients. The course of mucositis in this model is well defined and results in peak mucositis scores approximately 14-16 days following radiation. Mortality (generally from the side effects of anesthesia) in the fractionated radiation model is slightly higher than that seen in the acute radiation model and group sizes are increased (to 10 per group) to allow for this.
(§1) Forty (40) male Syrian Golden Hamsters were given eight doses of radiation of 7.5 Gy each directed to their left buccal cheek pouch on days 0, 1, 2, 3, 6, 7, 8 and 9. This was accomplished by anesthetizing the animals and everting the left buccal pouch, while protecting the rest of the animal's bodies with a lead shield. Test materials were given by sub-cutaneous injection once daily as detailed in Table 9. Mucositis was evaluated clinically starting on day 7, and continuing on alternate days until day 35. Test articles were given as outlined Table 9, Groups 1 and 2 were dosed from Day −1 to Day 29, Group 3 was dosed on the days of radiation only, Group 4 was dosed on the days between Day −15 and Day 29 on which no radiation is given (Day −1, Day 4, Day 5 and Day 10 to Day 29).
The effect on mucositis of each drug treatment compared to placebo was assessed according to the following parameters:
On each evaluation day, the number of animals with a blinded mucositis score of ≧3 in each drug treatment group was compared to the control group. Differences were compared on a cumulative basis and statistical significance was determined by chi-square analysis. Efficacy, in this analysis, is defined by a significant reduction in the number of days that a group of animals had ulcerations (scores ≧3) when compared to the control group.
For each evaluation day the scores of the control group were compared to those of the treated groups using non-parametric rank sum analysis. Treatment success was considered as a statistically significant lowering of scores in the treated group on 2 or more days from day 6 to day 28.
as §1, with “daily at 8:00 am” for “daily”, “9. […]” for “9. Mucositis was evaluated clinically starting on day 7, and continuing on alternate days until day 35.”, “2 was” for “2 were”, “radiation only (days 0-3 and days 6-10),” for “radiation only,”, “Day −1” for “Day −15”, “Day 4 to” for “Day 4,”
Radiation was generated with a Philips 160 kVp (kilovolt potential) (18.75-ma) X-ray source at a focal distance of 30 cm, with a 3.0 mm hardened Al filtration system. Irradiation was targeted to the left buccal pouch mucosa at a rate of 3.32 Gy/minute. […] Using this calibration, the energy received by each animal at each radiation dose was approximately 64.5 nC (nanoCoulombs) at each time point. Prior to irradiation, animals were anesthetized with an intraperitoneal injection of ketamine (160 mg/kg) and xylazine (8 mg/kg). The left buccal pouch was everted, fixed and isolated using a lead shield.
The mucositis score, weight change and survival were measured throughout the study as described above. […]

Measured: Mucositis score

N[C@H](CCC(=O)N[C@@H](Cc1c[nH]c2ccccc12)C(=O)O)C(=O)O [SCV-07, γ-D-glutamyl-L-tryptophan]
2: Group 2, day 13, individual animals (two score lines each) | Group 2, day 23, individual animals (two score lines each) | Group 2, day 25, individual animals (two score lines each) | Group 2, day 27, individual animals (two score lines each) | Group 2, day 31, individual animals (two score lines each) | Group 2, day 33, individual animals (two score lines each)
